Source: publication PMC6158578, “Optimization and Lead Selection of Benzothiazole Amide Analogs Toward a Novel Antimycobacterial Agent” (Frontiers in Microbiology, 2018)
In brackets after ≈: the same amount, converted by molar mass. Like-named read-outs stand apart in the source and are kept apart here.

Columns and labels:
[1] = system: M. abscessus 79; experiment: MIC in MHB versus 7H9+OADC; assay type: cell-based
[2] = 50% complement-inactivated human serum
[3] = system: Intracellular Mtb; experiment: microbe, parasite or virus in culture; assay type: cell-based, M. tuberculosis; conditions: Mycobacterium tuberculosis
[4] = system: E. coli tolC CGSC 5633 (efflux mutant strain); experiment: microbe, parasite or virus in culture; assay type: cell-based; conditions: Escherichia coli
[5] = system: P. aeruginosa ATCC 35151; experiment: MIC, spectrum of activity; assay type: cell-based; conditions: Pseudomonas aeruginosa, ATCC35151; P. aeruginosa ATCC 35151; read-out: MIC
[6] = system: M. abscessus 21; experiment: MIC in MHB versus 7H9+OADC; assay type: cell-based
[7] = HepG2 cytotoxicity, 72 h; assay type: cell-based; conditions: human, HepG2 cells, HepG2, 72 h, read-out: HepG2 cytotox., IC50
Procedure: (§1) ADMET assays were performed through NIAID Preclinical Services and Eurofins. Potential for cytotoxicity was monitored in HepG2 cells after 72 h growth in the presence of test compounds, either prepared as 10-point 3-fold serial dilutions or at a fixed 10 μM concentration. Cell viability was measured using the CellTiter-Glo® Luminescent Cell Viability Assay (Promega) or via fluorescent image analysis. Cytotoxicity was expressed as IC50 or as percent reduction of viable cells relative to a reference compound. Metabolic stability of compounds was evaluated via incubation with human liver microsomes at 37°C and quantitative analysis of parent compound by LC-MS/MS in samples removed at 0, 5, 15, 30, and 45 min (Obach, [1999]). For cytochrome P450 (CYP) inhibition assays, compounds were prepared as a 7-point dilution series and incubated with human liver microsomes in buffer containing 2 mM NADPH and probe substrate. […] Thermodynamic solubility of compounds in aqueous media was determined by incubation in 50 mM potassium phosphate buffer (pH 7.4) for 24 h, followed by HPLC-UV detection of compound in the filtrate (Analiza, Cleveland, OH, United States).

[8] = system: S. pneumoniae ATCC 49619; experiment: MIC, spectrum of activity; assay type: cell-based; conditions: Streptococcus pneumoniae, ATCC49619; S. pneumoniae ATCC 49619; read-out: MIC
[9] = system: S. aureus ATCC 29213; experiment: MIC, spectrum of activity; assay type: cell-based; conditions: Staphylococcus aureus, ATCC29213; S. aureus ATCC 29213; read-out: MIC
[10] = Solubility in corn oil; conditions: oil or lipid
[11] = system: E. coli ATCC 25922 + PMBN (permeabilized); experiment: MIC, spectrum of activity; assay type: cell-based; conditions: Escherichia coli, ATCC25922
[12] = system: M. abscessus 1; experiment: MIC in MHB versus 7H9+OADC; assay type: cell-based
[13] = system: S. pyogenes ATCC 19615; experiment: MIC, spectrum of activity; assay type: cell-based; conditions: Streptococcus pyogenes, ATCC19615; S. pyogenes ATCC 19615; read-out: MIC
[14] = system: M. abscessus (n = 20) clinical isolates; experiment: MIC against rapid-growing NTM clinical isolates; assay type: cell-based; conditions: M. abscessus (n = 20)
[15] = system: M. chelonae 93; experiment: MIC, broth microdilution with resazurin (MHB, 3 days); assay type: cell-based; conditions: Mycobacteroides chelonae; M. chelonae 93; read-out: MIC
[16] = in vitro; assay type: in vitro ADME; conditions: human, microsomes
Procedure: as §1

[17] = system: M. fortuitum 41; experiment: MIC, broth microdilution with resazurin (MHB, 3 days); assay type: cell-based; conditions: Mycolicibacterium fortuitum; M. fortuitum 41; read-out: MIC
[18] = system: M. tuberculosis H37Rv mc^2 6206; experiment: microbe, parasite or virus in culture; assay type: cell-based; conditions: Mycobacterium tuberculosis, 168 h
[19] = system: M. avium 101; experiment: MIC, Middlebrook medium (7H9 + OADC, 7 days); assay type: cell-based; conditions: Mycobacterium avium, 168 h; M. avium 101; read-out: MIC
[20] = Mouse oral PK and tolerability; assay type: in vivo, female CD-1 mice; conditions: oral 100 mg/kg
[21] = system: M. intracellulare 1956; experiment: MIC, Middlebrook medium (7H9 + OADC, 7 days); assay type: cell-based; conditions: Mycobacterium intracellulare, 168 h; M. intracellulare 1956; read-out: MIC
[22] = target: T1, CYP2B6 (Homo sapiens, UniProt P20813); experiment: CYP inhibition in human liver microsomes; assay type: in vitro ADME
T1 construct: incubated with human liver microsomes in buffer containing 2 mM NADPH and probe substrate; from tissue; host or cells: human liver microsomes
T1 sequence (P20813 1-491): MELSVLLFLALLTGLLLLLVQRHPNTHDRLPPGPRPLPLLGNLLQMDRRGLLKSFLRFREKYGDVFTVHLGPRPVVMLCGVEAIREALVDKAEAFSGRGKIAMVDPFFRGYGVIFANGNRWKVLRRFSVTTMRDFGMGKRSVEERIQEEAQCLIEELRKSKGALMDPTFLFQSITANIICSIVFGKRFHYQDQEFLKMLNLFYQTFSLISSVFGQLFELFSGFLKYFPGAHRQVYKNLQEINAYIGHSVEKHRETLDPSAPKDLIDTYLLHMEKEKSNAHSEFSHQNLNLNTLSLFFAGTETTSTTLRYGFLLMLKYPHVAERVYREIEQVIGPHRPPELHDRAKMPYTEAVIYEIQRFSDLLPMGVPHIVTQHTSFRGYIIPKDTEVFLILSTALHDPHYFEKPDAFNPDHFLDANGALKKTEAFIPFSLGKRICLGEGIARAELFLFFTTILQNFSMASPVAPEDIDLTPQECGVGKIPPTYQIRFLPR
Procedure: as §1

[23] = system: CYP3A; experiment: CYP inhibition in human liver microsomes; assay type: in vitro ADME
Procedure: as §1

[24] = system: Mtb H37Rv; assay type: cell-based, M. tuberculosis
[25] = system: M. abscessus massiliense 119; experiment: MIC, broth microdilution with resazurin (MHB, 3 days); assay type: cell-based; conditions: Mycobacteroides abscessus; M. abscessus massiliense 119; read-out: MIC

For `CC12CC3CC(C)(C1)CC(C(=O)Nc1nc4ccc(OC(F)(F)F)cc4s1)(C3)C2` [CRS400226], the MIC ([1]; M. abscessus 79, 7H9 + OADC (5 mg/mL albumin)) was 2 µg/mL, the MIC ([1]; M. abscessus 79, MHB) was 0.25 µg/mL (≈ 0.589 µM) and the “Protein (serum) binding” value [2] was over 95%. For the same molecule, the IC90 [3] was 0.8 µg/mL (≈ 1.88 µM), the MIC [4] was over 64 µg/mL and the MIC [5] was over 64 µg/mL. It also gave an MIC ([6]; M. abscessus 21, 7H9 + OADC (5 mg/mL albumin)) of 8 µg/mL, an MIC ([6]; M. abscessus 21, MHB) of 0.25 µg/mL (≈ 0.589 µM) and an IC50 at 72 h [7] of 69 µM. For the same molecule, the IC50 at 72 h ([7]; value in brackets) was 29 µg/mL, the MIC [8] was 64 µg/mL (≈ 151 µM) and the MIC [9] was over 64 µg/mL. It also gave a solubility [10] of at most 250 mg/mL, an MIC [11] of over 64 µg/mL and an MIC ([12]; M. abscessus 1, 7H9 + OADC (5 mg/mL albumin)) of 8 µg/mL. For the same molecule, the MIC ([12]; M. abscessus 1, MHB) was 0.25 µg/mL (≈ 0.589 µM), the MIC [13] was over 64 µg/mL and the MIC range [14] was 0.25 to 2 µg/mL. For the same molecule, the MIC90 ([14]; Mycobacteroides abscessus, read-out: MIC90) was 0.5 µg/mL (≈ 1.18 µM), the MIC [15] was 0.5 µg/mL (≈ 1.18 µM) and the microsomal CLint [16] was 124 µL/min/mg. It also gave an MIC [17] of 0.12 µg/mL (≈ 0.283 µM), an MIC [18] of 0.5 µg/mL (≈ 1.18 µM) and an MIC [19] of 2 µg/mL. For the same molecule, the concentration at 1 h ([20]; mouse, plasma, female CD-1 mice, 1 h, read-out: plasma level) was 2300 ng/mL, the concentration at 8 h ([20]; mouse, plasma, female CD-1 mice, 8 h, read-out: plasma level) was 2000 ng/mL and the “tolerability of oral dosing” value ([20]; mice) was “highly tolerated”. It also gave an MIC [21] of 1 µg/mL, an inhibition at 10 µM [22] of under 50% and an inhibition at 10 µM [23] of under 50%. The “reduction in Mtb in time-kill assay” value [24] was 3 Log10 CFU, the “time-kill kinetics, result in words” value [24] was “bactericidal activity” and the MIC [25] was 0.25 µg/mL (≈ 0.589 µM).
